The values that follow come from ChEMBL document CHEMBL1145540, “Zidovudine inhibits thymidine phosphorylation in the isolated perfused rat heart” (Antimicrob Agents Chemother, 2007).

The structures appear in SMILES notation.

In this assay the test system is Heart. In words: Inhibition of [3H]thymidine phosphorylation in isolated perfused Sprague-Dawley rat heart after 30 mins. It counts as functional, tissue-based.

`Cc1cn([C@H]2C[C@H](N=[N+]=[N-])[C@@H](CO)O2)c(=O)[nH]c1=O` [ZIDOVUDINE] gave a half-maximal inhibitory concentration (IC50) of 24.4 µM.
